Measurements published in ChEMBL document CHEMBL6109074 (Bioorg Med Chem, 2025).
pIC50: −log10 of the molar value. Counter-ions that a name gives are not always drawn. One block for each compound: values may come before it. Active and inactive are the calls of the source. The calls are words filed in the database; no cut-off is given here.

How the values were obtained:
[1] = Inhibition of HIF transcriptional activity in human HeLa cells harbouring HRE-luc preincubated for 1 hr under normoxic condition followed by 8 hrs incubation under hypoxic condition by luciferase reporter assay; format: cell-based
HeLa [2] = assay: Effect on HIF-1alpa protein expression in human HeLa cells at 1 to 100 uM incubated under hypoxia condition for 8 hrs by Western blot analysis; format: functional, cell-based; conditions: dose 1-100 µM
[3] = biological target: T1, Histone acetyltransferase p300/Hypoxia-inducible factor 1-alpha (Homo sapiens, UniProt Q09472+Q16665); assay: Inhibition of HIF-1alpha(unknown origin)/human p300 CH1 domain (323 to 423 residues) PPI extracted from Escherichia coli incubated for 1 hr by SpectraMax iD5 MultiMode microplate reader analysis; format: protein-complex assay
T1 sequence (Q09472 whole entry, the tested form may be a part): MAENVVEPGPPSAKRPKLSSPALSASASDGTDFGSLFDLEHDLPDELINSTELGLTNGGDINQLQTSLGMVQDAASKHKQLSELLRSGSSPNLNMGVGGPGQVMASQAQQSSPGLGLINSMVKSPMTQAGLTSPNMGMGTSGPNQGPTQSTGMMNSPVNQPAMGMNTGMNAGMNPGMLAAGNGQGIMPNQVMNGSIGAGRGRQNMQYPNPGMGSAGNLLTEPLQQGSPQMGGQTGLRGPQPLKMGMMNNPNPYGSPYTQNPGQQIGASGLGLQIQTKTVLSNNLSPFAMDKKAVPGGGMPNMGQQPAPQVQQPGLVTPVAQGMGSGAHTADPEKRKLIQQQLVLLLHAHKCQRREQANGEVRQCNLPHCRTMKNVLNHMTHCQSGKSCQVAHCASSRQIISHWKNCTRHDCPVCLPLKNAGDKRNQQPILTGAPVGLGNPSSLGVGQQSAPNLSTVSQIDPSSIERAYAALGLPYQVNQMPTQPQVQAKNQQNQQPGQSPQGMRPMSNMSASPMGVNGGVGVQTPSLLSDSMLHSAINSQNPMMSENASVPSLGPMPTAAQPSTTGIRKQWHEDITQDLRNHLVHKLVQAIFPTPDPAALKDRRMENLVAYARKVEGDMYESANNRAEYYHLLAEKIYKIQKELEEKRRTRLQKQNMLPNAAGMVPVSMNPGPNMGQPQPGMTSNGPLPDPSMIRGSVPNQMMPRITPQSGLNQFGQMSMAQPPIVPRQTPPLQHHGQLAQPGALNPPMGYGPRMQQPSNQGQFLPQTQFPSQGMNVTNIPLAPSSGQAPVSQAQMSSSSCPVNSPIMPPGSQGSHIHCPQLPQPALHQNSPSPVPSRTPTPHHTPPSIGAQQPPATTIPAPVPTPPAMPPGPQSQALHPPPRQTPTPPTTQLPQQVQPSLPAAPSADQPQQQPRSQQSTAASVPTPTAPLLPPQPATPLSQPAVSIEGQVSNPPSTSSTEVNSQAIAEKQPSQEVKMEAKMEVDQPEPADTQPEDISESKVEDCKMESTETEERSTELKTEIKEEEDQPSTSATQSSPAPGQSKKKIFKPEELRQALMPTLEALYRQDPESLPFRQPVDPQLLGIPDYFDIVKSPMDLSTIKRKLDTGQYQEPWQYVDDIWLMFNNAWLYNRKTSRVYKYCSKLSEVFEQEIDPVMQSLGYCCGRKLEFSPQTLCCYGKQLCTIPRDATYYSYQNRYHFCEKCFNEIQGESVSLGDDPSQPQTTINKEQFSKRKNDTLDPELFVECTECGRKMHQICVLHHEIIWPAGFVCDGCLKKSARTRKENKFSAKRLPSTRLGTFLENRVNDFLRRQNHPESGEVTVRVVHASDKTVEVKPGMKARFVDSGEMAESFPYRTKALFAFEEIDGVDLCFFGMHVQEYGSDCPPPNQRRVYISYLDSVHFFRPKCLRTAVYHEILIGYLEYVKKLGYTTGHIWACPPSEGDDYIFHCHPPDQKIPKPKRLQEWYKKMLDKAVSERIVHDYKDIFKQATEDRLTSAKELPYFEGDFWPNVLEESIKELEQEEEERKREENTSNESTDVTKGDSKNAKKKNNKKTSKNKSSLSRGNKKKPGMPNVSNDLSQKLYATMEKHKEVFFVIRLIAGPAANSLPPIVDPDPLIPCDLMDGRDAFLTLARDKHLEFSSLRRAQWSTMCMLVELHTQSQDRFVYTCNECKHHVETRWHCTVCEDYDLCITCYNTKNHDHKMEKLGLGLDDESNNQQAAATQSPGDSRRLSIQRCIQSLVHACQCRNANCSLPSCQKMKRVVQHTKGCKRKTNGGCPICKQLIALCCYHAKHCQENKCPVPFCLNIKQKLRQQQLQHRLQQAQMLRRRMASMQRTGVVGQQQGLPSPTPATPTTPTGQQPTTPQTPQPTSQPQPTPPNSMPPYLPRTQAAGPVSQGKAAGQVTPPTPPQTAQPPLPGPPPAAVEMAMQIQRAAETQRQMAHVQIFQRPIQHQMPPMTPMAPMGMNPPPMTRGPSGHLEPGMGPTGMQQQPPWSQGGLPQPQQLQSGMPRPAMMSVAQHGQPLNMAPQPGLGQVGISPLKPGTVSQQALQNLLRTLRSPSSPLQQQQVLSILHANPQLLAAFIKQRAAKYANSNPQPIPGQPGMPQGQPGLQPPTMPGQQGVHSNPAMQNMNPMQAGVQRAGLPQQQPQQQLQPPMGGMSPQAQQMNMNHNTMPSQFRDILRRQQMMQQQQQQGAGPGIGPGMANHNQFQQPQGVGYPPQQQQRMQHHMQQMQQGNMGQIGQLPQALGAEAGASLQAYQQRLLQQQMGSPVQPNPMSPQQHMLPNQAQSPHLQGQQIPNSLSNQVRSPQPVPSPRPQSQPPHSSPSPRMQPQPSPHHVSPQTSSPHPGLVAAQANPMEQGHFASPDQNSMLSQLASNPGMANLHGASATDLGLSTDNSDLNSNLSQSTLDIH
T1 sequence (Q16665 whole entry, the tested form may be a part): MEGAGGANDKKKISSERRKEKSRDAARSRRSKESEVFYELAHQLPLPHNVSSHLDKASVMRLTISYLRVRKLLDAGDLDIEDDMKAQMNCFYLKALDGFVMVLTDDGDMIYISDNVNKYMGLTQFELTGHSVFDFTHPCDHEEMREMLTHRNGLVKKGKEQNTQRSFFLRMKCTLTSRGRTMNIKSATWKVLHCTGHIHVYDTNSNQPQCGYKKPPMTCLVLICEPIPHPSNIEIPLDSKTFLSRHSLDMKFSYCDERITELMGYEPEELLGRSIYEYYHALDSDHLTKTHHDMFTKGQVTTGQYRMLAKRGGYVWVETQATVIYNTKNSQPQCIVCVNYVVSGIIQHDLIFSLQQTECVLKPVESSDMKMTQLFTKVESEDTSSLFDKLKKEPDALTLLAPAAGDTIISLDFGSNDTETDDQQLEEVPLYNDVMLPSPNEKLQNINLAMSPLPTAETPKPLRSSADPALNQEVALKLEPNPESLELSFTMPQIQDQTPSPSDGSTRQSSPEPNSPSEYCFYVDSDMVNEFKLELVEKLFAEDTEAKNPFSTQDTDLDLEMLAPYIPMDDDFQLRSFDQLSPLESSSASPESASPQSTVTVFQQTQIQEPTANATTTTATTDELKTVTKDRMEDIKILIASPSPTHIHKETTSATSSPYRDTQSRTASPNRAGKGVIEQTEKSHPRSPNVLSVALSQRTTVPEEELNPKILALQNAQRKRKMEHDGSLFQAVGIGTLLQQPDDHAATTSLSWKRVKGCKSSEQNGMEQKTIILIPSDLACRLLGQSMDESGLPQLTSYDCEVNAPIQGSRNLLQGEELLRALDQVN

[4] = biological target: T1, Histone acetyltransferase p300/Hypoxia-inducible factor 1-alpha; assay: Inhibition of HIF-1alpha/p300 PPI (unknown origin); format: protein-complex assay
[5] = biological target: Histone acetyltransferase p300 (Homo sapiens, UniProt Q09472); assay: Inhibition of p300 CH1 domain (unknown origin) by tryptophan fluorescence spectroscopy analysis
Sequence of Histone acetyltransferase p300 (Q09472 whole entry, the tested form may be a part): as the sequence (Q09472 whole entry, the tested form may be a part) above

HeLa [6] = assay: Effect on HIF-1alpa mRNA expression in human HeLa cells at 1 to 100 uM incubated under hypoxia condition for 8 hrs by real-time analysis; format: functional, cell-based; conditions: dose 1-100 µM
HeLa [7] = assay: Downregulation of CAIX mRNA expression in human HeLa cells at 1 to 100 uM incubated under hypoxia condition for 8 hrs by real-time analysis; format: functional, cell-based; conditions: dose 1-100 µM
HeLa [8] = assay: Downregulation of BAX mRNA expression in human HeLa cells at 1 to 100 uM incubated under hypoxia condition for 8 hrs by RT-PCR analysis; format: functional, cell-based; conditions: dose 1-100 µM
HeLa [9] = assay: Effect on p53 mRNA expression in human HeLa cells at 1 to 100 uM incubated under hypoxia condition for 8 hrs by RT-PCR analysis; format: functional, cell-based; conditions: dose 1-100 µM
HeLa [10] = assay: Downregulation of c-MYC mRNA expression in human HeLa cells at 1 to 100 uM incubated under hypoxia condition for 8 hrs by RT-PCR analysis; format: functional, cell-based; conditions: dose 1-100 µM
HeLa [11] = assay: Effect on STAT3 mRNA expression in human HeLa cells at 1 to 100 uM incubated under hypoxia condition for 8 hrs by RT-PCR analysis; format: functional, cell-based; conditions: dose 1-100 µM

- pIC50 [1]: 4.84
SMILES: OCCN1CCN(CCCN2c3ccccc3Sc3ccc(Cl)cc32)CC1 [PERPHENAZINE]
- Activity (HeLa [2]): inactive

SMILES: [N-]=[N+]=Nc1cc(O)c(C(=O)Nc2ccc([N+](=O)[O-])cc2Cl)cc1Cl
- Activity (HeLa [2]): inactive

SMILES: Fc1ccc(C(c2ccc(F)cc2)N2CCN(C/C=C/c3ccccc3)CC2)cc1 [FLUNARIZINE HYDROCHLORIDE]
- pIC50 [1]: 5.05

- pIC50 [3]: 5.86
SMILES: COC1=C(N)C(=O)c2nc(-c3nc(C(=O)O)c(C)c(-c4ccc(OC)c(OC)c4O)c3N)ccc2C1=O [STREPTONIGRIN]

- pIC50 [4]: 5.36
SMILES: COC(=O)c1ccc(O)c(NC(=O)COc2ccc(C34CC5CC(CC(C5)C3)C4)cc2)c1

- pIC50 [5]: 6.28
- pIC50 [3]: 7.29
SMILES: CC(C)C[C@@H]1NCCN([C@@H](CC(C)C)C(=O)N2CCN([C@@H](CCC(N)=O)C(N)=O)C(=O)[C@@H]2C)C1=O

SMILES: O=C(Nc1ccc([N+](=O)[O-])cc1Cl)c1cc(Cl)ccc1O
- Activity (HeLa [2]): inactive
- Activity (HeLa [6]): inactive
- Activity (HeLa [7]): Active
- Activity (HeLa [8]): Active
- Activity (HeLa [9]): inactive
- Activity (HeLa [10]): Active
- Activity (HeLa [11]): inactive

SMILES: C[C@@]12C(=O)OC(=O)[C@]1(C)[C@H]1CC[C@@H]2O1 [CANTHARIDIN]
- pIC50 [1]: 5.25
